Measured values reported in the supplement of paper PMC8617591.

Columns and labels:
[1] = test system: Mycobacterium tuberculosis Erdman (autoluminescent); test: total FIC50 (Loewe) at 50% inhibition, three-drug combination (log2); higher = more antagonistic
Protocol: (§1)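 DiaMOND equipotent three-drug combination dose responses (10 doses, 1.5- or 2-fold spacing, centred on IC90) against autoluminescent M. tuberculosis Erdman in 8 in vitro models. Read-out is OD600, or luminescence for the intracellular and dormancy models, normalised to untreated wells. Hill-fit Einf, AUC25 and GRinf are potency metrics; FIC50 and FIC90 are total Loewe fractional inhibitory concentrations as log2 (negative = synergy).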

[2] = test system: Mycobacterium tuberculosis Erdman (autoluminescent); test: total FIC90 (Loewe) at 90% inhibition, three-drug combination (log2); higher = more antagonistic
Protocol: as §1

[3] = test system: Mycobacterium tuberculosis Erdman (autoluminescent); test: Einf, fitted maximum growth inhibition of three-drug combination (fraction); higher = stronger maximal inhibition
Protocol: as §1

[4] = test system: Mycobacterium tuberculosis Erdman (autoluminescent); test: AUC25, normalised area under dose response up to IC25 (three-drug combination) (fraction (0-1)); higher = more potent at low dose
Protocol: as §1

[5] = test system: Mycobacterium tuberculosis Erdman (autoluminescent); test: GRinf, maximum normalised growth rate inhibition (three-drug combination) (unitless (-1 to 1)); higher = less effect (negative = killing)
Protocol: as §1

CC(C)/N=c1\cc2n(-c3ccc(Cl)cc3)c3ccccc3nc-2cc1Nc1ccc(Cl)cc1 [clofazimine] + COc1c(N2C[C@@H]3CCCN[C@@H]3C2)c(F)cc2c(=O)c(C(=O)O)cn(C3CC3)c12 [moxifloxacin] + CO[C@H]1/C=C/O[C@@]2(C)Oc3c(C)c(O)c4c(O)c(c(/C=N/N5CCN(C)CC5)c(O)c4c3C2=O)NC(=O)/C(C)=C\C=C\[C@H](C)[C@H](O)[C@@H](C)[C@@H](O)[C@@H](C)[C@H](OC(C)=O)[C@@H]1C [rifampicin]
Settings	AUC25, [4]	Einf, [3]	GRinf, [5]	total FIC50, [1]	total FIC90, [2]
in vitro model: acidic pH 5.7, time point: constant (~7 days, model-specific)	0.0543	0.794	0.0586	0.584	–
in vitro model: acidic pH 5.7, time point: terminal (~4-5 doublings, model-specific)	0.0718	0.984	-0.141	0.552	0.413
in vitro model: intracellular J774, time point: constant = terminal	–	0.971	-0.31	–	0.881

Settings	AUC25, [4]	Einf, [3]	GRinf, [5]	total FIC50, [1]	total FIC90, [2]
in vitro model: butyrate, time point: constant (~7 days, model-specific)	0.118	0.961	-0.195	0.632	0.476
in vitro model: butyrate, time point: terminal (~4-5 doublings, model-specific)	0.0964	0.979	-0.129	0.441	0.673
in vitro model: cholesterol 0.05 mM, time point: constant (~7 days, model-specific)	0.111	0.622	0.0422	1.52	–
in vitro model: cholesterol 0.05 mM, time point: terminal (~4-5 doublings, model-specific)	0.0951	0.89	-0.0588	1.22	-0.407
in vitro model: cholesterol-high 0.2 mM, time point: constant (~7 days, model-specific)	0.119	0.887	-0.695	1.08	1.19
in vitro model: cholesterol-high 0.2 mM, time point: terminal (~4-5 doublings, model-specific)	0.0965	1	-1	1.33	1.21
in vitro model: dormancy (butyrate + nitrate, low O2), time point: constant (~7 days, model-specific)	0.0851	0.924	0.135	0.282	-0.619
in vitro model: dormancy (butyrate + nitrate, low O2), time point: terminal (~4-5 doublings, model-specific)	0.108	0.991	-0.361	-0.142	1.27
in vitro model: standard 7H9 glycerol, time point: constant = terminal	0.128	0.975	-0.0863	-0.17	–
in vitro model: valerate, time point: constant (~7 days, model-specific)	0.104	0.907	-0.0605	1.12	–
in vitro model: valerate, time point: terminal (~4-5 doublings, model-specific)	0.075	0.948	0.0195	0.91	1.97

NNC(=O)c1ccncc1 [isoniazid] + COc1c(N2C[C@@H]3CCCN[C@@H]3C2)c(F)cc2c(=O)c(C(=O)O)cn(C3CC3)c12 [moxifloxacin] + NC(=O)c1cnccn1 [pyrazinamide]
Settings	AUC25, [4]	Einf, [3]	GRinf, [5]	total FIC50, [1]	total FIC90, [2]
in vitro model: acidic pH 5.7, time point: constant (~7 days, model-specific)	0.0943	0.811	-0.673	-1.74	–
in vitro model: acidic pH 5.7, time point: terminal (~4-5 doublings, model-specific)	0.0851	0.971	-0.382	-2.52	-1.33
in vitro model: intracellular J774, time point: constant = terminal	–	0.997	-0.252	–	0.681

Settings	AUC25, [4]	Einf, [3]	GRinf, [5]	total FIC50, [1]	total FIC90, [2]
in vitro model: butyrate, time point: constant (~7 days, model-specific)	0.0913	0.951	-0.232	-1.78	-0.791
in vitro model: butyrate, time point: terminal (~4-5 doublings, model-specific)	0.0549	0.975	-0.195	-1.66	-1.72
in vitro model: cholesterol 0.05 mM, time point: constant (~7 days, model-specific)	0.0921	0.697	-0.188	–	–
in vitro model: cholesterol 0.05 mM, time point: terminal (~4-5 doublings, model-specific)	0.0805	0.887	-0.177	-0.327	–
in vitro model: cholesterol-high 0.2 mM, time point: constant (~7 days, model-specific)	0.0786	0.911	-0.235	0.416	–
in vitro model: cholesterol-high 0.2 mM, time point: terminal (~4-5 doublings, model-specific)	0.0668	0.981	-0.527	0.819	0.533
in vitro model: dormancy (butyrate + nitrate, low O2), time point: constant (~7 days, model-specific)	0.0724	0.877	0.245	-2.06	-2.38
in vitro model: dormancy (butyrate + nitrate, low O2), time point: terminal (~4-5 doublings, model-specific)	0.0689	0.984	-0.161	-1.92	-1.58
in vitro model: standard 7H9 glycerol, time point: constant = terminal	0.0639	0.983	-0.168	–	–
in vitro model: valerate, time point: constant (~7 days, model-specific)	0.117	0.877	0.0249	-1.97	–
in vitro model: valerate, time point: terminal (~4-5 doublings, model-specific)	0.0825	0.931	0.0159	-1.91	-1.83

CC[C@@H](CO)NCCN[C@@H](CC)CO [ethambutol] + NNC(=O)c1ccncc1 [isoniazid] + NC(=O)c1cnccn1 [pyrazinamide]
Settings	AUC25, [4]	Einf, [3]	GRinf, [5]	total FIC50, [1]	total FIC90, [2]
in vitro model: acidic pH 5.7, time point: constant (~7 days, model-specific)	0.0856	0.755	-0.322	0.219	–
in vitro model: acidic pH 5.7, time point: terminal (~4-5 doublings, model-specific)	0.076	0.953	-0.269	0.788	-0.0381
in vitro model: intracellular J774, time point: constant = terminal	–	0.988	-0.458	–	0.0195

Settings	AUC25, [4]	Einf, [3]	GRinf, [5]	total FIC50, [1]	total FIC90, [2]
in vitro model: butyrate, time point: constant (~7 days, model-specific)	0.0862	0.936	-0.0472	0.362	–
in vitro model: butyrate, time point: terminal (~4-5 doublings, model-specific)	0.0571	0.956	0.000899	0.43	0.0924
in vitro model: cholesterol 0.05 mM, time point: constant (~7 days, model-specific)	0.115	0.804	-0.282	–	–
in vitro model: cholesterol 0.05 mM, time point: terminal (~4-5 doublings, model-specific)	0.119	0.953	-0.377	0.635	–
in vitro model: cholesterol-high 0.2 mM, time point: constant (~7 days, model-specific)	0.0628	0.921	-0.27	0.837	–
in vitro model: cholesterol-high 0.2 mM, time point: terminal (~4-5 doublings, model-specific)	0.0569	1	-0.8	0.879	0.821
in vitro model: dormancy (butyrate + nitrate, low O2), time point: constant (~7 days, model-specific)	0.0979	0.822	0.394	-0.294	–
in vitro model: dormancy (butyrate + nitrate, low O2), time point: terminal (~4-5 doublings, model-specific)	0.104	0.972	-0.0582	0.22	1.09
in vitro model: standard 7H9 glycerol, time point: constant = terminal	0.063	0.862	0.233	0.587	–
in vitro model: valerate, time point: constant (~7 days, model-specific)	0.069	0.819	0.124	0.411	–
in vitro model: valerate, time point: terminal (~4-5 doublings, model-specific)	0.0469	0.898	0.113	0.582	0.569
